Results as given in patent publication US11136317B2, “NADPH oxidase 4 inhibitors” (ACTELION PHARMACEUTICALS LTD, priority 2015, dated 2021).

Biological target: T1, human NOX4 (Homo sapiens, UniProt Q9NPH5)
T1 construct: The full-length human NOX4 (NM_016931.3) transcript was cloned; expressed in transfected cells
T1 sequence (Q9NPH5 1-578): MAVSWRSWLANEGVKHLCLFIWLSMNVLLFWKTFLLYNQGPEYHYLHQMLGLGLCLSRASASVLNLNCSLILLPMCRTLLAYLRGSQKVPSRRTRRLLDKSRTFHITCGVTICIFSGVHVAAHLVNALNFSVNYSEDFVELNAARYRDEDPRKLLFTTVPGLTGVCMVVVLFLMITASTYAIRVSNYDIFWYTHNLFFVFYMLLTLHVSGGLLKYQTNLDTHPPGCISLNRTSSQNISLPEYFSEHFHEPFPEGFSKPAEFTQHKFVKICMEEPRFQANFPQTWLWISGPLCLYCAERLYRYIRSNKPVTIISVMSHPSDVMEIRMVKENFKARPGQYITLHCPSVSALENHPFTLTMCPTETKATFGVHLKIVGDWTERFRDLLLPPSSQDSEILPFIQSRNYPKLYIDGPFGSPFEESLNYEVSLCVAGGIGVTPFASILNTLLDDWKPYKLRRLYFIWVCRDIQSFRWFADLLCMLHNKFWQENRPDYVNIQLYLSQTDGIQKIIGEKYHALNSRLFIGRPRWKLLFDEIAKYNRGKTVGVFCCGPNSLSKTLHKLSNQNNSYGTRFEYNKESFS
T1 sequence (P13498 1-195 partner): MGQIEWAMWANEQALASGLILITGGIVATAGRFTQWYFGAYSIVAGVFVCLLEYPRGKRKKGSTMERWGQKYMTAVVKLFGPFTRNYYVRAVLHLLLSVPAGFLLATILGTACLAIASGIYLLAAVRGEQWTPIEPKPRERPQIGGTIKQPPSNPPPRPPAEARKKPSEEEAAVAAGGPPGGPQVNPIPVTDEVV
Experiment: Amplex Red activity assay (cellular H2O2 formation in hNOX4 T-REx-293 cells)
Type: cell-based
Conditions: tet-induced 24 h, extracellular H2O2 by Amplex Red, 60 min 25° C., geometric mean if determined several times
Protocol: The nucleotide sequence and the amino acid sequence for the human NOX4 (Entrez Gene ID 50507) is known in the art and are published. The potency and efficacy of the compounds of Formula (I) are assessed for their potential to inhibit the formation of ROS in a cellular assay.
The full-length human NOX4 (NM_016931.3) transcript was cloned into the pDONR™221 vector (Life Technologies™) in order to generate, by site-specific integration according to the recommendation of the manufacturer (Life Technologies™), a recombinant pJTI™ R4 DEST CMV-TO vector containing the NOX4 coding information controlled by tetracycline (tet) responsive tet-on cytomegalovirus promoter (hNOX4 pDEST).
Modified human embryonic kidney cells overexpressing a tet receptor (Jump-In™ T-REx™ HEK293; Life Technologies™) were transfected with the NOX4-containing tet-on vector (hNOX4 pDEST) to generate a stable recombinant cell pool (hNOX4 T-REx-293). hNOX4 T-REx-293 cells were cultured in DMEM containing 4.5 g/L glucose supplemented with 10% fetal calf serum, penicillin (100 U/mL), streptomycin (100 μg/mL), geneticin (1 mg/mL), and blasticidin (5 μg/mL) at 37° C. in air with 5% CO2. Human Nox4 expression was induced with tet (1 μg/mL) for 24 h and extracellular H2O2 was quantified using the Amplex Red reagent (Life Technologies™).
Compounds were prepared as 10 mM stock solution in DMSO vehicle, then diluted in 384-well plates using DMSO followed by a transfer of the dilutions into the assay plate. As a control, diphenylene iodonium was included at a final concentration of 10 μM. Compounds were tested at 10 concentrations in the range from 50 μM highest to 100 nM lowest.
Cellular H2O2 formation was measured using the Amplex Red reagent. […] Cells were seeded into 384-well clear bottom plates at a density of 20 000 cells per well in presence or absence of compounds. […] All wells contained 1.25% of DMSO. The plates were kept at 25° C. for 60 min. The amount of produced resorufin was detected with the Synergy™ Mx microplate reader (BioTek) with excitation and emission wavelengths set to 550 nm and 600 nm, respectively. Fluorescence was measured for each well and the fluorescence at 600 nm wavelength was compared to the fluorescence of the vehicle in place of compound. Inhibitory activities of example compounds were determined by calculating the IC50 value (the concentration of compound needed to inhibit 50% of the enzyme activity). The calculated IC50 values may fluctuate depending on the daily cellular assay performance. Fluctuations of this kind are known to those skilled in the art.

Structure (SMILES)	IC50 [nM]
O=C(Nc1ccc2oc(N3CCCCC34COC4)nc2c1)c1ccc2c(c1)CCO2 [Example 26, 2,3-Dihydro-benzofuran-5-carboxylic acid [2-(2-oxa-5-aza-spiro[3.5]non-5-yl)-benzooxazol-5-yl]-amide]	1490
O=C(Nc1ccc2oc(N3CCC4(CCO4)CC3)nc2c1)c1ccc2c(c1)CCO2 [Example 27, 2,3-Dihydro-benzofuran-5-carboxylic acid [2-(1-oxa-7-aza-spiro[3.5]non-7-yl)-benzooxazol-5-yl]-amide]	729
O=C(Nc1ccc2oc(N3CCC4(CCCO4)CC3)nc2c1)c1ccc2c(c1)CCO2 [Example 29, 2,3-Dihydro-benzofuran-5-carboxylic acid [2-(1-oxa-8-aza-spiro[4.5]dec-8-yl)-benzooxazol-5-yl]-amide]	541
O=C(Nc1ccc2oc(N3CC4(CCOCC4)C3)nc2c1)c1ccc2c(c1)CCO2 [Example 30, 2,3-Dihydro-benzofuran-5-carboxylic acid [2-(7-oxa-2-aza-spiro[3.5]non-2-yl)-benzooxazol-5-yl]-amide]	1230
O=C(Nc1ccc2oc(N3CC4(CCCO4)C3)nc2c1)c1ccc2c(c1)CCO2 [Example 31, 2,3-Dihydro-benzofuran-5-carboxylic acid [2-(5-oxa-2-aza-spiro[3.4]oct-2-yl)-benzooxazol-5-yl]-amide]	2170
O=C(Nc1ccc2oc(N3CC(N4CCC(O)CC4)C3)nc2c1)c1ccc2c(c1)CCO2 [Example 32, 2,3-Dihydro-benzofuran-5-carboxylic acid {2-[3-(4-hydroxy-piperidin-1-yl)-azetidin-1-yl]-benzooxazol-5-yl}-amide]	2410
CN1CCCC2(C1)CN(c1nc3cc(NC(=O)c4ccc5c(c4)CCO5)ccc3o1)C2 [Example 33, 2,3-Dihydro-benzofuran-5-carboxylic acid [2-(6-methyl-2,6-diaza-spiro[3.5]non-2-yl)-benzooxazol-5-yl]-amide]	2140
O=C(Nc1ccc2oc(N3CC4(CCCCO4)C3)nc2c1)c1ccc2c(c1)CCO2 [Example 34, 2,3-Dihydro-benzofuran-5-carboxylic acid [2-(5-oxa-2-aza-spiro[3.5]non-2-yl)-benzooxazol-5-yl]-amide]	1220
O=C(Nc1ccc2oc(N3CCC34CCC4)nc2c1)c1ccc2c(c1)CCO2 [Example 35, 2,3-Dihydro-benzofuran-5-carboxylic acid [2-(1-aza-spiro[3.3]hept-1-yl)-benzooxazol-5-yl]-amide]	379
O=C(Nc1ccc2oc(N3CCC34CCOCC4)nc2c1)c1ccc2c(c1)CCO2 [Example 36, 2,3-Dihydro-benzofuran-5-carboxylic acid [2-(7-oxa-1-aza-spiro[3.5]non-1-yl)-benzooxazol-5-yl]-amide]	404
CC(C)(C)OC(=O)C1CN(c2nc3cc(NC(=O)c4ccc5c(c4)CCO5)ccc3o2)C1 [Example 37, 1-{5-[(2,3-Dihydro-benzofuran-5-carbonyl)-amino]-benzooxazol-2-yl}-azetidine-3-carboxylic acid tert-butyl ester]	841
O=C(Nc1ccc2oc(N3CCCC3=O)nc2c1)c1ccc2c(c1)CCO2 [Example 38, 2,3-Dihydro-benzofuran-5-carboxylic acid [2-(2-oxo-pyrrolidin-1-yl)-benzooxazol-5-yl]-amide]	1750
O=C(Nc1ccc2oc(N3CCS(=O)(=O)CC3)nc2c1)c1ccc2c(c1)OCCO2 [Example 39, 2,3-Dihydro-benzo[1,4]dioxine-6-carboxylic acid [2-(1,1-dioxo-thiomorpholin-4-yl)-benzooxazol-5-yl]-amide]	444
O=C(Nc1ccc2oc(N3CCS(=O)(=O)CC3)nc2c1)c1ccc2c(c1)CCCO2 [Example 40, Chroman-6-carboxylic acid [2-(1,1-dioxo-thiomorpholin-4-yl)-benzooxazol-5-yl]-amide]	812
CN1CCOc2ccc(C(=O)Nc3ccc4oc(N5CCS(=O)(=O)CC5)nc4c3)cc21 [Example 41, 4-Methyl-3,4-dihydro-2H-benzo[1,4]oxazine-6-carboxylic acid [2-(1,1-dioxo-thiomorpholin-4-yl)-benzooxazol-5-yl]-amide]	2520
O=C(Nc1ccc2oc(N3CCC[C@@H](O)C3)nc2c1)c1ccc2c(c1)CCO2 [Example 42, (R)—N-(2-(3-hydroxypiperidin-1-yl)benzo[d]oxazol-5-yl)-2,3-dihydrobenzofuran-5-carboxamide]	566
O=C(Nc1ccc2oc(N3CCC[C@H](O)C3)nc2c1)c1ccc2c(c1)CCO2 [Example 43, 2,3-Dihydro-benzofuran-5-carboxylic acid [2-((S)-3-hydroxy-piperidin-1-yl)-benzooxazol-5-yl]-amide]	541
CC(C)OC1CN(c2nc3cc(NC(=O)c4ccc5c(c4)CCO5)ccc3o2)C1 [Example 44, 2,3-Dihydro-benzofuran-5-carboxylic acid [2-(3-isopropoxy-azetidin-1-yl)-benzooxazol-5-yl]-amide]	1140
O=C(Nc1ccc2oc(N3CC[C@@H](O)C3)nc2c1)c1ccc2c(c1)CCO2 [Example 45, 2,3-Dihydro-benzofuran-5-carboxylic acid [2-((R)-3-hydroxy-pyrrolidin-1-yl)-benzooxazol-5-yl]-amide]	573
O=C(Nc1ccc2oc(N3CC[C@H](O)C3)nc2c1)c1ccc2c(c1)CCO2 [Example 46, 2,3-Dihydro-benzofuran-5-carboxylic acid [2-((S)-3-hydroxy-pyirolidin-1-yl)-benzooxazol-5-yl]-amide]	570
O=C(Nc1ccc2oc(N3CC(O)C3)nc2c1)c1ccc2c(c1)CCO2 [Example 47, 2,3-Dihydro-benzofuran-5-carboxylic acid [2-(3-hydroxy-azetidin-1-yl)-benzooxazol-5-yl]-amide]	657
O=C(Nc1ccc2oc(N3CCC(O)CC3)nc2c1)c1ccc2c(c1)CCO2 [Example 48, 2,3-Dihydro-benzofuran-5-carboxylic acid [2-(4-hydroxy-piperidin-1-yl)-benzooxazol-5-yl]-amide]	448
O=C(Nc1ccc2oc(N3CC(c4ccccc4)C3)nc2c1)c1ccc2c(c1)CCO2 [Example 49, 2,3-Dihydro-benzofuran-5-carboxylic acid [2-(3-phenyl-azetidin-1-yl)-benzooxazol-5-yl]-amide]	1230
O=C(Nc1ccc2oc(N3CCC4(CC3)COC4)nc2c1)c1ccc2c(c1)CCO2 [Example 50, 2,3-Dihydro-benzofuran-5-carboxylic acid [2-(2-oxa-7-aza-spiro[3.5]non-7-yl)-benzooxazol-5-yl]-amide]	451
CCOCC1CCCN1c1nc2cc(NC(=O)c3ccc4c(c3)CCO4)ccc2o1 (centres unmarked) [Example 51, 2,3-Dihydro-benzofuran-5-carboxylic acid [2-(2-ethoxymethyl-pyrrolidin-1-yl)-benzooxazol-5-yl]-amide]	4570
CN(CC1(F)COC1)c1nc2cc(NC(=O)c3ccc4c(c3)CCO4)ccc2o1 [Example 52, 2,3-Dihydro-benzofuran-5-carboxylic acid {2-[(3-fluoro-oxetan-3-ylmethyl)-methyl-amino]-benzooxazol-5-yl}-amide]	899
